Results reported in patent US10344064B2, “Engineered potent cytotoxic stapled BH3 peptides” (The Trustees of Princeton University, priority 2012, dated 2019).
“Also recorded” adds a separate entry of the source. Like-named read-outs stand apart in the source and are kept apart here. Bridges are numbered along the chain shown (N, C = ends). Where no end group is shown, it is not given here. [ ]: non-standard residue; d: D form. S5 = C=CCCC[C@](C)(N)C(=O)O

Experiments:
Bcl-xL = molecular target: T1, Bcl-xL (Homo sapiens, UniProt Q07817); assay: Apparent Kd by E. coli surface display and flow cytometry, Bcl-xL; type: binding; conditions: for binding to Bcl-xL (in words): compared with wild-type peptide; for increase in apparent affinity toward Bcl-xL: relative to wild-type Bim 14-mer
T1 construct: made in house; host or cells: E. coli BL21
Description: (§1) All binding assays were performed using MC1061 strain. Briefly, a 5 mL culture of a library sample or individual variant was grown to OD600˜0.6, and induced with arabinose (0.2%) at RT for 2.5 hours. Cells were pelleted (1 mL culture, 6000 rpm, 5 min) and resuspended in 1 mL PBS. A portion of the cell suspension (50 μL) was mixed with the desired concentration of pro-survival protein to a total volume of 500 μL. The mixture was allowed to rotate at room temperature for 1 hour for equilibrium binding. The cells were pelleted again (6000 rpm, 20 min), resuspended with 100 μL of 50 nM streptavidin-phycoerythrin (SAPE), and incubated on ice in the dark for 30 min. After a final centrifugation, the cell pellets were stored on ice and resuspended in 2 mL of PBS for flow cytometry measurements. A Partec CyFlow ML Flow Cytometer equipped with a 488 nm laser was used to analyze the cells. A FACSVantage SE cell sorter was used for cell sorting in single cell mode.
(§2) A two parameter model was used to extract apparent binding affinity (Kd) from flow cytometry binding experiments.

Bcl-2 = molecular target: T2, Bcl-2 (Homo sapiens, UniProt P10415); assay: Apparent Kd by E. coli surface display and flow cytometry, Bcl-2; type: binding; conditions: compared with wild-type peptide
T2 construct: made in house; host or cells: E. coli BL21
Description: as §1, §2

Bcl-w = molecular target: T3, Bcl-w (Homo sapiens, UniProt Q92843); assay: Apparent Kd by E. coli surface display and flow cytometry, Bcl-w; type: binding; conditions: compared with wild-type peptide
T3 construct: made in house; host or cells: E. coli BL21
T3 sequence (Q92843 1-193): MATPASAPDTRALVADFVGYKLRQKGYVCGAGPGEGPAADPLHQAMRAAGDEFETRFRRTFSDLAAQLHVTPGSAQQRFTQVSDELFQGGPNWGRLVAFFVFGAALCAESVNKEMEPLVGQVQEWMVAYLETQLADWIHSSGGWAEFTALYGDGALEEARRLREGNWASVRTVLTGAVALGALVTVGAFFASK
Description: as §1, §2

Mcl-1 = molecular target: T4, Mcl-1 (Homo sapiens, UniProt Q07820); assay: Apparent Kd by E. coli surface display and flow cytometry, Mcl-1; type: binding
T4 construct: made in house; host or cells: E. coli BL21
Description: as §1, §2

A1 = assay: Apparent Kd by E. coli surface display and flow cytometry, A1; type: binding; conditions: for Kd: Table 3, apparent Kd, unstapled 14-mer displayed on E. coli (eCPX); for affinity improvement toward A1: relative to wild-type Bim 14-mer
Description: as §1, §2

HeLa cells [1] = type: cell-based, human
Description: (§3) HeLa, PC3, MCF7 and MDA231 cell lines were used to determine IC50 of each stapled peptide. All cells were cultured at 37° C. supplemented with 5% CO2. HeLa cells and PC3 cells were maintained in DMEM and RPMI 1640 media, respectively, supplemented with 10% FBS, 50 units/mL penicillin, and 50 μg/mL streptomycin. MCF7 cells were maintained in DME/F12 media with 2% FBS, 10 μg/ml insulin, and 50 μg/ml gentamicin. MDA-MB-231 cells were maintained in DME/F12 media supplemented with 10% FBS, 10 μg/ml insulin, and 50 μg/ml gentamicin. The cytotoxicity of stapled peptides was determined using an MTT (3-(4,5-Dimethylthiazol-2-yl)-2,5-diphenyltetrazolium bromide assay (Sigma). Cells were plated at a density of 1.5×10^4 cells per well in a 96-well plate. After 24 hours, the medium was replaced with serum-free medium containing stapled peptides. Serum was added after 4 hours, and cells were incubated for an additional 44 hours. After this incubation, 0.5 mg/ml of MTT was added to each well and incubated for 4 hours. The medium was aspirated and 200 μL of dimethyl sulfoxide (DMSO) was added to each well to solubilize the formazan crystals. The absorbance was measured at 570 nm with 690 nm as an internal reference using a GloMax-Multi Detection System (Promega). Experiments were performed three times independently with biological replicates. A four-parameter model was used to fit the experimental data and extract the IC50 value from killing assays, where log [ ] was the log value of the stapled peptide concentration. [formula] During fitting, “top” was always fixed at 100% viability, while “bottom,” log [IC50] and Hill slope were allowed to vary. In all cases, “bottom” came out to be 0. The R^2 values of all fits were above 0.9, while the majority was above 0.95.

[2] = system: HeLa, PC3, MCF7 and MDA231 cell lines; assay: MTT cytotoxicity assay of stapled peptides, all four cancer cell lines; type: cell-based, human; conditions: for cytotoxicity against the four cancer cell lines (in words): stapled pseudo-wild-type peptide
Description: as §3

MDA231 cells = type: cell-based, human
Description: as §3

PC3 cells = type: cell-based, human
Description: as §3

MCF7 cells = assay: MTT cytotoxicity assay of stapled peptides, MCF7; type: cell-based, human; conditions: for cytotoxicity toward MCF7 cells (in words): stapled peptides, at the concentrations tested
Description: as §3

HeLa = conditions: cisplatin, values from reference 33-36; cited from earlier work
PC3 = conditions: cisplatin, values from reference 33-36; cited from earlier work
MCF7 = conditions: cisplatin, values from reference 33-36; cited from earlier work
MDA231 = conditions: cisplatin, values from reference 33-36; cited from earlier work
HeLa cells [3] = assay: Peptide uptake by fluorescence microscopy; type: cell-based, human; conditions: 5 μM, imaged after 2.5 hours
Description: (§4) To study the uptake of fluorescein-labeled M2-4 stapled peptide (Fl-M2-4), HeLa cells were cultured in DMEM with 10% FBS and antibiotics as described above. The peptide was added to a final concentration of 5 μM in fresh DMEM without serum supplementation. Cellular uptake of FI-M2-4 was visualized using a Hamamatsu Orca CCD camera attached to a Nikon Eclipse Ti microscope after 2.5 hours of incubation. Cells were fixed using 4% paraformaldehyde and counterstained with Hoechst 33342. For the TUNEL assay, HeLa cells were plated on a fibronectin-treated coverslip and incubated with 5 μM unlabeled M2-4 peptide for 5 hours. The cells were then fixed using 4% paraformaldehyde and permeabilized with 0.25% Triton X-100 in PBS. The TUNEL assay (Click-it Alexa-Fluor 594, Invitrogen) was carried out according to the manufacturer's recommendations including counterstaining cell nuclei with Hoechst 33342. Images were acquired using a Hamamatsu Orca CCD camera attached to a Nikon Eclipse Ti microscope. All images were processed with ImageJ software.

HeLa cells [4] = assay: TUNEL assay; type: cell-based, human; conditions: 5 μM, 5 hours
Description: as §4

[5] = Table 2, apparent Kd, unstapled 14-mer displayed on E. coli (eCPX), read-out: Kd vs. Mcl-1
[6] = Table 3, apparent Kd, unstapled 14-mer displayed on E. coli (eCPX), read-out: Kd (nM) Mcl-1

T4 sequence (Q07820 whole entry): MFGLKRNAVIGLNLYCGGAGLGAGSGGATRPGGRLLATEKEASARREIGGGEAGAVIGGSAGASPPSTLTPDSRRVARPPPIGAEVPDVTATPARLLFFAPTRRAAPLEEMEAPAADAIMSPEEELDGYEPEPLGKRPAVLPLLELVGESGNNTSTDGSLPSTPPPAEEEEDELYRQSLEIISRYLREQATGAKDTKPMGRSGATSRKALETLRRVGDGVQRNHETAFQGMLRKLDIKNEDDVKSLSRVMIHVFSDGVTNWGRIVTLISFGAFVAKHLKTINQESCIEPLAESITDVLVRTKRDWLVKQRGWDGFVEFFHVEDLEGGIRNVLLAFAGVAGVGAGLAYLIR
T1 sequence (Q07817 whole entry): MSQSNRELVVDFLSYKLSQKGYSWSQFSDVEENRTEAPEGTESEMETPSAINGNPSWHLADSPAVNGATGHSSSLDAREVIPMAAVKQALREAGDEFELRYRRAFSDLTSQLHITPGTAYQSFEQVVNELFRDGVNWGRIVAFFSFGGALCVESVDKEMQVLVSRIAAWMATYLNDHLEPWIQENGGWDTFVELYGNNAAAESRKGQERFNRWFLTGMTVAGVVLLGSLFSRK
T2 sequence (P10415 whole entry): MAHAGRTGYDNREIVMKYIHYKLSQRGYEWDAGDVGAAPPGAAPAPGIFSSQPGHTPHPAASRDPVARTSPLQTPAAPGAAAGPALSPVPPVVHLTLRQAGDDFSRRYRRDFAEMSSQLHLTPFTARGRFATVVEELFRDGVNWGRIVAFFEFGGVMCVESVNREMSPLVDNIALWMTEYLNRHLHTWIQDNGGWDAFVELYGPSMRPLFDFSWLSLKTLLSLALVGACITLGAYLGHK

## CC[C@H](C)[C@@H]1NC(=O)[C@@](C)(NC(=O)[C@H](CCCNC(=N)N)NC(=O)[C@H](CC(C)C)NC(=O)[C@H](CC(C)C)NC(=O)[C@H](CCC(N)=O)NC(=O)[C@H](C)NC(=O)[C@H](CC(C)C)NC(=O)[C@@H](N)Cc2c[nH]c3ccccc23)CCCC=CCCC[C@@](C)(C(=O)N[C@H](C(=O)N[C@@H](CC(N)=O)C(N)=O)[C@@H](C)CC)NC(=O)[C@H](CC(=O)O)NC(=O)CNC1=O [M2-4, Trp-Leu-Ala-Gln-Leu-Leu-Arg-Arg-Ile-Gly-Asp-Glu-Ile-Asn]
Bcl-xL
  binding to Bcl-xL (in words): maintaining wild-type affinity
Bcl-2
  binding to Bcl-2 (in words): maintaining wild-type affinity
Bcl-w
  binding to Bcl-w (in words): maintaining wild-type affinity
Mcl-1; [5]
  Kd: 9.85 nM
Mcl-1; [6]
  Kd: 9.85 nM
A1
  Kd: 4.18 nM
  affinity improvement toward A1: 6 fold
HeLa cells [1]; HeLa cells, stapled peptides
  decrease in IC50 relative to the pseudo-wild-type peptide: ~150 fold
[2]
  IC50: < 6.2 µM

## CC[C@H](C)[C@H](NC(=O)[C@@H](N)Cc1c[nH]c2ccccc12)C(=O)N[C@@H](C)C(=O)N[C@@H](CCC(N)=O)C(=O)N[C@@H](CCC(N)=O)C(=O)N[C@@H](CC(C)C)C(=O)N[C@@H](CCCNC(=N)N)C(=O)N[C@@]1(C)CCCC=CCCC[C@@](C)(C(=O)N[C@@H](Cc2ccccc2)C(=O)N[C@@H](CC(N)=O)C(N)=O)NC(=O)[C@H](CC(=O)O)NC(=O)CNC(=O)[C@H]([C@@H](C)CC)NC1=O (single isomer, unassigned) [E151Q]
Bcl-xL
  increase in apparent affinity toward Bcl-xL: 5 fold
A1
  Kd: 29.6 nM
HeLa cells [1]
  IC50: 150 µM
MDA231 cells
  IC50: 20 µM
PC3 cells
  IC50: 9.5 µM
MCF7 cells
  IC50: 35.7 µM

## CC(C)C[C@H](NC(=O)[C@H](Cc1c[nH]c2ccccc12)NC(=O)[C@H](CCC(N)=O)NC(=O)[C@H](C)NC(=O)[C@@H](NC(=O)[C@@H](N)Cc1c[nH]c2ccccc12)C(C)C)C(=O)N[C@@H](CCCNC(=N)N)C(=O)N[C@@]1(C)CCCC=CCCC[C@@](C)(C(=O)N[C@@H](Cc2ccccc2)C(=O)N[C@@H](CC(N)=O)C(N)=O)NC(=O)[C@H](CC(=O)O)NC(=O)CNC(=O)[C@H](Cc2c[nH]c3ccccc23)NC1=O [X2-3, Trp-Val-Ala-Gln-Trp-Leu-Arg-Arg-Trp-Gly-Asp-Glu-Phe-Asn]
Bcl-xL
  increase in apparent affinity toward Bcl-xL: 25 fold
A1
  Kd: 30.2 nM
HeLa cells [1]
  IC50: 51.3 µM
MDA231 cells
  IC50: 10.5 µM
PC3 cells
  IC50: 17.9 µM
MCF7 cells
  cytotoxicity toward MCF7 cells (in words): no cytotoxicity

## CC(C)C[C@H](NC(=O)[C@H](CCC(N)=O)NC(=O)[C@H](C)NC(=O)[C@H](CC(C)C)NC(=O)[C@@H](N)Cc1c[nH]c2ccccc12)C(=O)N[C@@H](CC(C)C)C(=O)N[C@@H](CCCNC(=N)N)C(=O)N[C@@]1(C)CCCC=CCCC[C@@](C)(C(=O)N[C@@H](Cc2ccccc2)C(=O)N[C@@H](CC(N)=O)C(N)=O)NC(=O)[C@H](CC(=O)O)NC(=O)CNC(=O)[C@H](Cc2ccc(O)cc2)NC1=O [X2-8, Trp-Leu-Ala-Gln-Leu-Leu-Arg-Arg-Tyr-Gly-Asp-Glu-Phe-Asn]
A1
  Kd: 40.5 nM
HeLa cells [1]
  IC50: 55 µM
MDA231 cells
  IC50: 18.3 µM
PC3 cells
  IC50: 14.9 µM
MCF7 cells
  cytotoxicity toward MCF7 cells (in words): no cytotoxicity

## N.N.[Cl][Pt][Cl] [Cisplatin, cisplatin]
HeLa
  IC50: 1.34 µM
PC3
  IC50: 5.6 µM
MCF7
  IC50: 5 µM
MDA231
  IC50: ~10 µM

## WIAQELRRIGDEFN [WT, reference compound]
A1
  Kd: 26.9 nM

## CC[C@H](C)[C@@H]1NC(=O)[C@@](C)(NC(=O)[C@H](CCCNC(=N)N)NC(=O)[C@H](CC(C)C)NC(=O)[C@H](CC(C)C)NC(=O)[C@H](CCC(N)=O)NC(=O)[C@H](C)NC(=O)[C@@H](NC(=O)[C@@H](N)Cc2c[nH]c3ccccc23)C(C)C)CCCC=CCCC[C@@](C)(C(=O)N[C@H](C(=O)N[C@@H](CC(N)=O)C(N)=O)C(C)C)NC(=O)[C@H](CC(=O)O)NC(=O)CNC1=O [M2-2, Trp-Val-Ala-Gln-Leu-Leu-Arg-Arg-Ile-Gly-Asp-Glu-Val-Asn]
Bcl-xL
  binding to Bcl-xL (in words): lost the ability to bind
Bcl-2
  binding to Bcl-2 (in words): lost the ability to bind
Bcl-w
  binding to Bcl-w (in words): lost the ability to bind
Mcl-1; [5]
  Kd: 5.8 nM
Mcl-1; [6]
  Kd: 5.8 nM
Mcl-1; displayed unstapled 14-mer, read-out: apparent Kd against Mcl-1
  Kd: 5.8 nM
Mcl-1; relative to wild-type Bim 14-mer
  increase in apparent affinity toward Mcl-1: 6 fold
A1
  Kd: 9.99 nM
  affinity improvement toward A1: 3 fold
HeLa cells [1]
  IC50: 6.1 µM
MDA231 cells
  IC50: 3.7 µM
PC3 cells
  IC50: 4.7 µM
MCF7 cells
  IC50: 5.7 µM
[2]
  IC50: < 6.2 µM

## CC[C@H](C)[C@H](NC(=O)[C@@H](N)Cc1c[nH]c2ccccc12)C(=O)N[C@@H](C)C(=O)N[C@@H](CCC(N)=O)C(=O)N[C@@H](CCC(N)=O)C(=O)N[C@@H](CC(C)C)C(=O)N[C@@H](CCCNC(=N)N)C(=O)N[C@@]1(C)CCCC=CCCC[C@@](C)(C(=O)N[C@@H](Cc2ccccc2)C(=O)N[C@@H](CC(N)=O)C(N)=O)NC(=O)[C@H](CC(=O)O)NC(=O)CNC(=O)[C@H]([C@@H](C)CC)NC1=O (single isomer, unassigned) [stapled E151Q]
[2]
  IC50: 10 to 150 µM
  cytotoxicity against the four cancer cell lines (in words): only modest cytotoxicity; also recorded: measurable but modest cytotoxicity
[2]; listed as pseudo-wild-type Bim peptide
  cytotoxicity against the four cancer cell lines (in words): only modest cytotoxicity

## stapled M2-4: stapled version of M2-4; positions 8 and 12 replaced by olefinic amino acids and crosslinked (WLAQLLR[S5]IGD[S5]IN-NH2; staple 8-12)
HeLa cells [3]
  cellular uptake (in words): taken up
HeLa cells [4]
  apoptosis / DNA fragmentation by TUNEL (in words): DNA fragmentation
HeLa cells [4]; listed as M2-4 stapled peptide
  apoptosis / DNA fragmentation by TUNEL (in words): causes apoptosis
